In PMC5862592, “CDK8/19 inhibition induces premature G1/S transition and ATR-dependent cell death in prostate cancer cells” (Oncotarget, 2018):
Read-outs that look alike come from different tables or passages of the source.

Assays:
Test in all cases: biochemical
Parameters in all cases: KINOMEscan active site-directed competition binding assay (DiscoveRx), 456 kinases, per cent of control at 300 nM
Details in all cases: read-out: Percent of Control (%)
EPHB6 = EPHB6 (Homo sapiens, UniProt O15197)
How it was run: (§1)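 Single-concentration selectivity screen: compound 300 nmol/L; 456-kinase panel; active-site-directed competition binding read-out.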

CHEK1 = CHEK1 (Homo sapiens, UniProt O14757)
Chain of CHEK1 (O14757 whole entry): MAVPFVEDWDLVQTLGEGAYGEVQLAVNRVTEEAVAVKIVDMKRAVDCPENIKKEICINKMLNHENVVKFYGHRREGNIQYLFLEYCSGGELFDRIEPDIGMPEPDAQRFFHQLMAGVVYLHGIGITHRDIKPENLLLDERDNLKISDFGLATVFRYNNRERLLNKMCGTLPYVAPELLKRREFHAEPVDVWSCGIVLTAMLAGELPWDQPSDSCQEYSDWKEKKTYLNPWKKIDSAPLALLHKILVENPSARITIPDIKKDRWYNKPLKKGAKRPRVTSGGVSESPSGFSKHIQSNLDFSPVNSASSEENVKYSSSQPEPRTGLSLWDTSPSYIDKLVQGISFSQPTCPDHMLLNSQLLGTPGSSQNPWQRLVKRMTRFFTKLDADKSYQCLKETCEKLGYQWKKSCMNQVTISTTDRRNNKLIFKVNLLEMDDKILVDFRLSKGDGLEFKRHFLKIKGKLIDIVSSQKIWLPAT
How it was run: as §1

MST1 = target: T1, MST1 (Homo sapiens, UniProt Q13043)
T1 construct: gene STK4
How it was run: as §1

ANKK1 = ANKK1 (Homo sapiens, UniProt Q8NFD2)
How it was run: as §1

RIOK2 = RIOK2 (Homo sapiens, UniProt Q9BVS4)
Chain of RIOK2 (Q9BVS4 whole entry): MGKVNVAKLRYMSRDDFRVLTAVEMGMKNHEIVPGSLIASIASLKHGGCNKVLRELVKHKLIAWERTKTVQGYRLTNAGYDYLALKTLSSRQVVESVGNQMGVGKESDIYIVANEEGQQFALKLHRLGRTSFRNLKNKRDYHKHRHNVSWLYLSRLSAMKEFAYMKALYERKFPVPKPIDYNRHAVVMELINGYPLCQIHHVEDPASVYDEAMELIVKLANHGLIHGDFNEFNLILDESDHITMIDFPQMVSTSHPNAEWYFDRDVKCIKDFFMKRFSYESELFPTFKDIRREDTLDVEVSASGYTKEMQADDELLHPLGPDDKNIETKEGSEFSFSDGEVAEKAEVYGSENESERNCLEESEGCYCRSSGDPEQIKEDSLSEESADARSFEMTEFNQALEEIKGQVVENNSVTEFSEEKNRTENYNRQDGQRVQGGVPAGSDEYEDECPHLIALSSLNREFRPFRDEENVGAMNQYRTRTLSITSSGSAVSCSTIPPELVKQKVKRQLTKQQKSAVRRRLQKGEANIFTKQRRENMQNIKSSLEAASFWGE
How it was run: as §1

FLT1 = FLT1 (Homo sapiens, UniProt P17948)
How it was run: as §1

BRSK2 = BRSK2 (Homo sapiens, UniProt Q8IWQ3)
How it was run: as §1

MARK1 = MARK1 (Homo sapiens, UniProt Q9P0L2)
Chain of MARK1 (Q9P0L2 whole entry): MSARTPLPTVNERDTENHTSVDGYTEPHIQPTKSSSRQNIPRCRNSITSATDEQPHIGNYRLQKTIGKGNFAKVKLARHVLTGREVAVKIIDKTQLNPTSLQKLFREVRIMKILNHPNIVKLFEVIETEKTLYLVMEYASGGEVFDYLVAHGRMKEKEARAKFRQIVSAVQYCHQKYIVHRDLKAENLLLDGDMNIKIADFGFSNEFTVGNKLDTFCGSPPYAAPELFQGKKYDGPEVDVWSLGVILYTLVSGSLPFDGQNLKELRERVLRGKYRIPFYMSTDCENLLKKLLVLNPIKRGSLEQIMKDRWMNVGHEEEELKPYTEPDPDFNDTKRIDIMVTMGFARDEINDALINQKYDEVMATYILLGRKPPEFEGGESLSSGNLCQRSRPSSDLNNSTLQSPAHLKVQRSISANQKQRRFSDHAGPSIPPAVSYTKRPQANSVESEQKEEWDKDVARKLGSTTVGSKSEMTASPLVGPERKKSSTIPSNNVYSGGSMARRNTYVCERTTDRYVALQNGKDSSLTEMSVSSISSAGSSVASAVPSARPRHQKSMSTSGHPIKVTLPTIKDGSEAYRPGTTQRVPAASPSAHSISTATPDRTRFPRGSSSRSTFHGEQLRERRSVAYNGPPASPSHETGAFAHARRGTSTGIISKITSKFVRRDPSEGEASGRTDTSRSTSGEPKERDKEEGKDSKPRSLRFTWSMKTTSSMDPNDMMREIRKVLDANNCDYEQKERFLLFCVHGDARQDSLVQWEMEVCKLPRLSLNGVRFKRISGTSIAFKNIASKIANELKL
How it was run: as §1

[1] = target: T2, JAK1(JH2domain-pseudokinase) (Homo sapiens, UniProt P23458)
T2 construct: JH2domain-pseudokinase
How it was run: as §1

MET = MET (Homo sapiens, UniProt P08581)
Chain of MET (P08581 whole entry): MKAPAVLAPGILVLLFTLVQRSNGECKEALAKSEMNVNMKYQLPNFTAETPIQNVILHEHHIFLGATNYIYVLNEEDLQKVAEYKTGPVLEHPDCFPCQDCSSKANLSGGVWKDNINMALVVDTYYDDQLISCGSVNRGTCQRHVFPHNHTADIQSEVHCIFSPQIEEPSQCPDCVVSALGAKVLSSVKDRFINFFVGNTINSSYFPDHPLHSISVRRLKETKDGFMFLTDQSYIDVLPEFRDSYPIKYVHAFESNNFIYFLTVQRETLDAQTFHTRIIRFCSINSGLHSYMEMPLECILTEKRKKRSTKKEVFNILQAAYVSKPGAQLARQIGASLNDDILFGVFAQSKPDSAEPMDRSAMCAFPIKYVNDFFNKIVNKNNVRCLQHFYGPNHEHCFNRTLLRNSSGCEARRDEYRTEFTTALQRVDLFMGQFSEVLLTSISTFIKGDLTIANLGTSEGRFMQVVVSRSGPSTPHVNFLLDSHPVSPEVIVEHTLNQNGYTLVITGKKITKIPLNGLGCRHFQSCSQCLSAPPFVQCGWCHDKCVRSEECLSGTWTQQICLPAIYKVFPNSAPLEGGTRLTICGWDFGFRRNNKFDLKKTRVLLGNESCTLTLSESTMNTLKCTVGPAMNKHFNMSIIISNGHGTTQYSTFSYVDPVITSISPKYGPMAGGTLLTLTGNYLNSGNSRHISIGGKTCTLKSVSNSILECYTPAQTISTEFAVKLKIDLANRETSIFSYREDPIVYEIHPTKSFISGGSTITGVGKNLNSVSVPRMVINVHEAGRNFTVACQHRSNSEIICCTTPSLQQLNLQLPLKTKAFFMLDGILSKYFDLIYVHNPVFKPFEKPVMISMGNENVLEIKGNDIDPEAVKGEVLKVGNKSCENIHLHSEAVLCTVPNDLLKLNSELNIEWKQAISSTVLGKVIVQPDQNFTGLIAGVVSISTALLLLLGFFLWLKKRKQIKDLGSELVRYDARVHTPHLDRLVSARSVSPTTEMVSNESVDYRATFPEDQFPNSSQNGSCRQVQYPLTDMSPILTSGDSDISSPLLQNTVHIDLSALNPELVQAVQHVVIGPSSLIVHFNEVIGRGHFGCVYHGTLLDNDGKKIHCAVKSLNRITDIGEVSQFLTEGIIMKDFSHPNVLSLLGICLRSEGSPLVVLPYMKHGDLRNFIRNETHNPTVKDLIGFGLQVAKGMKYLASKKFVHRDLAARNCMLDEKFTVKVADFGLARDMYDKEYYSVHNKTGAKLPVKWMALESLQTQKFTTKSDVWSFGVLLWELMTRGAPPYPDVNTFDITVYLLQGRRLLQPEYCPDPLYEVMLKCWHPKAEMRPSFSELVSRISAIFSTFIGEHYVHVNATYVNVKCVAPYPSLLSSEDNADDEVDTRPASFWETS
How it was run: as §1

BMX = BMX (Homo sapiens, UniProt P51813)
Chain of BMX (P51813 whole entry): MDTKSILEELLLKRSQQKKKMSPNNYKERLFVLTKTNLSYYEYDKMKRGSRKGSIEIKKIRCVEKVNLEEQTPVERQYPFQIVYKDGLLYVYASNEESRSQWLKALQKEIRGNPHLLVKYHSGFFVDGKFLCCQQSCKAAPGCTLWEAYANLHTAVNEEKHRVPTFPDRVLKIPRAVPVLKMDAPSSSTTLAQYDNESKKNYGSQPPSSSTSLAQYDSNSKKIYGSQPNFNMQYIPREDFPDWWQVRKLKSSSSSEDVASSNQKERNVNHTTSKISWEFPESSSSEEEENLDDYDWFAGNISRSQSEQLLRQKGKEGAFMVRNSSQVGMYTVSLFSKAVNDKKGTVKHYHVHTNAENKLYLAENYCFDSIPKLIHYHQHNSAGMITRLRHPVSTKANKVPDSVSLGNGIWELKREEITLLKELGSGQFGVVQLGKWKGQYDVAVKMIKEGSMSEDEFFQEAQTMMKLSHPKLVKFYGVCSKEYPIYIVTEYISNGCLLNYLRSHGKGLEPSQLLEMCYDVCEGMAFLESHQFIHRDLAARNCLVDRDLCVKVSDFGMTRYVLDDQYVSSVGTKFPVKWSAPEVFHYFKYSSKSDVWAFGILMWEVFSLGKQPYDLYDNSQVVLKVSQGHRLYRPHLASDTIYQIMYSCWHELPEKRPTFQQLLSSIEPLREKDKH
How it was run: as §1

FYN = FYN (Homo sapiens, UniProt P06241)
How it was run: as §1

FLT3(R834Q) = FLT3(R834Q) (Homo sapiens, UniProt P36888, R834Q)
How it was run: as §1

RET(V804L) = RET(V804L) (Homo sapiens, UniProt P07949, V804L)
Chain of RET(V804L) (P07949 whole entry V804L): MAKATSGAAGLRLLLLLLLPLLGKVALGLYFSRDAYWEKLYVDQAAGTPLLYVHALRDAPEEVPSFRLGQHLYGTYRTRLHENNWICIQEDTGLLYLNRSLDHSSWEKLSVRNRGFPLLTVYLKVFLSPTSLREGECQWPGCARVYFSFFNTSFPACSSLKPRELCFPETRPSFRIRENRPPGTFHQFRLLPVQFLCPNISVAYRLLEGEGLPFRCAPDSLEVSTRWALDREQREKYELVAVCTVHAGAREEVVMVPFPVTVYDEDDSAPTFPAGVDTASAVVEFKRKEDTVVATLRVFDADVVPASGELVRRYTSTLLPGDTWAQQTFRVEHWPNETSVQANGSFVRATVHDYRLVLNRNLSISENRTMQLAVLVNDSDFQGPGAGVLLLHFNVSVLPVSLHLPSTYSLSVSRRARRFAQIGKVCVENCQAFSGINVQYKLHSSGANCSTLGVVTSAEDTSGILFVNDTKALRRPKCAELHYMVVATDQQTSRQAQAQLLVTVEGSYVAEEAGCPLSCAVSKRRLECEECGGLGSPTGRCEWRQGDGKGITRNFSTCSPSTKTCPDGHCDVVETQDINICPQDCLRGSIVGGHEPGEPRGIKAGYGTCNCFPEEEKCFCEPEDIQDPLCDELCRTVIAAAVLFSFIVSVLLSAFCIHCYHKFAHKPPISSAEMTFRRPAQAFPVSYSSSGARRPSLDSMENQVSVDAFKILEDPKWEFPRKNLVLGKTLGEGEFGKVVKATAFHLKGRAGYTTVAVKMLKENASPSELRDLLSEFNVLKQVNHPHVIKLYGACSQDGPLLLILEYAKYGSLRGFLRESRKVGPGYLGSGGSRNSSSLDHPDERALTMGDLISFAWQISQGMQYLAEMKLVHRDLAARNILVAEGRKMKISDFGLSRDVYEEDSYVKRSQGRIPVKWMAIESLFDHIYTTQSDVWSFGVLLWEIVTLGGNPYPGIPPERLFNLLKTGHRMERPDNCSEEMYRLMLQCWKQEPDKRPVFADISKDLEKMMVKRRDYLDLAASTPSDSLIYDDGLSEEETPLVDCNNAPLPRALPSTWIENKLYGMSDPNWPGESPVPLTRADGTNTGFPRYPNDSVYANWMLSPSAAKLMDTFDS
How it was run: as §1

CTK = target: T3, CTK (Homo sapiens, UniProt P42679)
T3 construct: gene MATK
How it was run: as §1

ALK(L1196M) = ALK(L1196M) (Homo sapiens, UniProt Q9UM73, L1196M)
How it was run: as §1

[2] = target: T4, RSK1(Kin.Dom.2-C-terminal) (Homo sapiens, UniProt Q15418)
T4 construct: gene RPS6KA1; Kin.Dom.2-C-terminal
How it was run: as §1

ACVR2B = ACVR2B (Homo sapiens, UniProt Q13705)
How it was run: as §1

PAK4 = PAK4 (Homo sapiens, UniProt O96013)
How it was run: as §1

CAMK4 = CAMK4 (Homo sapiens, UniProt Q16566)
How it was run: as §1

[3] = target: T5, RPS6KA5(Kin.Dom.1-N-terminal) (Homo sapiens, UniProt O75582)
T5 construct: Kin.Dom.1-N-terminal
How it was run: as §1

Compound `Cc1ncccc1Oc1sc(C(N)=O)c2c1-c1c(cnn1C)CC2` [T-474, 1-methyl-8-((2-methylpyridin-3-yl)oxy)-4,5-dihydro-1H-thieno[3,4-g]indazole-6-carboxamide] has a remaining binding at 0.3 µM (EPHB6) of 86%, a remaining binding at 0.3 µM (CHEK1) of 100% and a remaining binding at 0.3 µM (MST1) of 100%. It also gave a remaining binding at 0.3 µM (ANKK1) of 100%, a remaining binding at 0.3 µM (RIOK2) of 87% and a remaining binding at 0.3 µM (FLT1) of 100%. The remaining binding at 0.3 µM (BRSK2) was 87%, the remaining binding at 0.3 µM (MARK1) was 81% and the remaining binding at 0.3 µM [1] was 100%. The remaining binding at 0.3 µM (MET) was 100%, the remaining binding at 0.3 µM (BMX) was 82% and the remaining binding at 0.3 µM (FYN) was 100%. It also gave a remaining binding at 0.3 µM (FLT3(R834Q)) of 91%, a remaining binding at 0.3 µM (RET(V804L)) of 94% and a remaining binding at 0.3 µM (CTK) of 100%. It also gave a remaining binding at 0.3 µM (ALK(L1196M)) of 100%, a remaining binding at 0.3 µM [2] of 100% and a remaining binding at 0.3 µM (ACVR2B) of 81%. For the same compound, the remaining binding at 0.3 µM (PAK4) was 100%, the remaining binding at 0.3 µM (CAMK4) was 100% and the remaining binding at 0.3 µM [3] was 100%.
With `O=C(/C=C/c1cnccc1-c1ccc(F)cc1)Nc1ccc(CCc2nnco2)cc1` [T-418, (2E)-3-(4-(4-fluorophenyl)pyridin-3-yl)-N-(4-(2-(1,3,4-oxadiazol-2-yl)ethyl)phenyl)acrylamide] the remaining binding at 0.3 µM (EPHB6; sheet T-418) was 93%, the remaining binding at 0.3 µM (CHEK1; sheet T-418) was 100% and the remaining binding at 0.3 µM (MST1; sheet T-418) was 89%. It also gave a remaining binding at 0.3 µM (ANKK1; sheet T-418) of 89%, a remaining binding at 0.3 µM (RIOK2; sheet T-418) of 99% and a remaining binding at 0.3 µM (FLT1; sheet T-418) of 100%. The remaining binding at 0.3 µM (BRSK2; sheet T-418) was 100%, the remaining binding at 0.3 µM (MARK1; sheet T-418) was 100% and the remaining binding at 0.3 µM ([1]; sheet T-418) was 100%. The remaining binding at 0.3 µM (MET; sheet T-418) was 92%, the remaining binding at 0.3 µM (BMX; sheet T-418) was 100% and the remaining binding at 0.3 µM (FYN; sheet T-418) was 100%. It also gave a remaining binding at 0.3 µM (FLT3(R834Q); sheet T-418) of 88%, a remaining binding at 0.3 µM (RET(V804L); sheet T-418) of 81% and a remaining binding at 0.3 µM (CTK; sheet T-418) of 100%. For the same compound, the remaining binding at 0.3 µM (ALK(L1196M); sheet T-418) was 100%, the remaining binding at 0.3 µM ([2]; sheet T-418) was 100% and the remaining binding at 0.3 µM (ACVR2B; sheet T-418) was 80%. The remaining binding at 0.3 µM (PAK4; sheet T-418) was 99%, the remaining binding at 0.3 µM (CAMK4; sheet T-418) was 78% and the remaining binding at 0.3 µM ([3]; sheet T-418) was 80%.
